Test results as given in patent US11534377B2, “Hair growth agent” (KOBAYASHI PHARMACEUTICAL CO., LTD., priority 2016, dated 2022).

What was measured:
[1] = system: transplanted mice (hair follicles of haired mice transplanted into the back of nude mice); assay: Hair shaft growth in nude mice transplanted with hair follicles of haired mice (Example 1); assay type: in vivo; details: for Hair shaft growth rate: topical 4 times per day
Method: Hair follicles (surgically prepared) of haired mice were transplanted into the back of nude mice (from Sankyo Labo Service Corporation, Inc.) to produce transplanted mice manipulated such that each hair can be distinguished and a plurality of hair cycles can be observed. First, a 50% ethanol aqueous solution (12.5 μl, not containing the agent) was applied to the transplanted mice 4 times per day during new hair growth in the first hair cycle to obtain reference data of a hair cycle. After the hair had shed following the end of the first hair cycle, a 50% ethanol aqueous solution (12.5 μl) containing a predetermined amount of the agent was applied to the mice 4 times per day to obtain data on effects of the agent. After the hair had shed following the end of the second hair cycle, a 50% ethanol aqueous solution (12.5 μl) containing the agent in the same amount as that in the second hair cycle was applied to the mice in a similar manner to the second hair cycle to obtain reproducibility data on effects of the agent. As the agent, D-chiro-inositol (from Wako Pure Chemical Industries Ltd.) and its stereoisomers as chiro-inositol, L-chiro-inositol (from Tokyo Chemical Industry Co., Ltd.), myo-inositol (from Wako Pure Chemical Industries Ltd.), allo-inositol (cis-1,2,3,4-trans-5,6-cyclohexaneheaxol) (from Tokyo Chemical Industry Co., Ltd.), epi-inositol (cis-1,2,3,4,5-trans-6-cyclohexanehexaol) (from Tokyo Chemical Industry Co., Ltd.), muco-inositol (cis-1,2,4,5-trans-3,6-cyclohexanehexaol) (from Tokyo Chemical Industry Co., Ltd.), and scyllo-inositol (cis-1,3,5-trans-2,4,6-cyclohexanehexaol) (from Tokyo Chemical Industry Co., Ltd.) were used. For each agent solution, the lengths of hair shafts were measured every 2 to 3 days, an average length of hair shafts that changed day by day was plotted as one dot at each time point in a graph, and a similar plotting was repeated for 3 to 4 mice. The results were shown in Tables 1 to 14 and FIGS. 1 to 14.

[2] = system: hair papilla cell spheroids; assay: Hair papilla cell proliferation test by three-dimensional culture (Example 6); assay type: cell-based, C57BL/6N mouse; details: final concentrations 0.05 wt %, 0.1 wt %, and 1 wt %, cultured for 3 days; FIG. 19
Method: In this Example, hair papilla cells prepared in a similar manner to Example 5 were seeded in a 96-well U-bottom microplate for cell culture (from Sumitomo Bakelite Co., Ltd.) at 6,000 cells/well and centrifuged with a plate centrifuge at room temperature and at a rotating speed of 1,000 rpm for 1 minute to yield three-dimensional hair papilla cell spheroids. The spheroids were cultured for 3 days by using each of test solutions A1 to A3 that were hair papilla cell culture media to which D-chiro-inositol dissolved in PBS was added at a final concentration of 0.05 wt %, 0.1 wt %, or 1 wt %; test solutions B1 to B3 that were hair papilla cell culture media to which myo-inositol dissolved in PBS was added at a final concentration of 0.05 wt %, 0.1 wt %, or 1 wt %; and a negative control that was a hair papilla cell culture medium to which PBS alone was added. The spheroids after culturing for 3 days were imaged by using a VHX2000 digital microscope (Keyence Corporation), and the area of the spheroids was calculated by using a digital microscope analysis tool. By calculating a spheroid area increase rate in the test solutions A1 to A3 and B1 to B3, relative to an area increase rate in the negative control as 100%, the proliferation of hair papilla cells in conditions further close to in vivo condition was quantified.

[3] = system: crab-eating macaque (Macaca fascicularis); assay: New hair growth test in monkey (Example 4); assay type: in vivo; details: 1 wt % in 50% ethanol, once/day 150 μl, 8 weeks, sparse hair region of head; number of hair before application = 100%
Excerpt: A crab-eating macaque (Macaca fascicularis) is a monkey (class: Mammalia, order: Primates, family: Cercopithecidae, genus: Macaca) that has many similarities to humans, such as the morphology of the temporomandibular joint, and is frequently employed as a laboratory animal for morphological studies and medication studies due to its easy breeding and rearing. The crab-eating macaque is known for the replacement of the body hair in a six-month cycle in a year. Among aged female monkeys that had babies repeatedly and aged male monkeys of low social status, individuals with observed symptoms of hair thinning or sparse hair emerge with low frequency. […] In this Example, to an aged crab-eating macaque (19 years of age, male) having sparse body hair of the head, a test solution A in which D-chiro-inositol (from Wako Pure Chemical Industries Ltd.) was dissolved in 50% ethanol at a concentration of 1 wt % and a test solution B in which myo-inositol was dissolved in 50% ethanol at a concentration of 1 wt % were applied every day to about 4 cm^2-sparse hair regions (2 cm×2 cm) in both left and right sides across the median line of the head of the macaque. The application (once/day, 150 μl) was performed over 8 weeks, and 50% ethanol was applied as a negative control. At the end of 8 weeks, hair shafts in the applied regions were cut with hair clippers while leaving 2 to 3 mm from pores toward the outside of the body, and the total number of hair protruded from the pores in the applied regions was counted. A new hair growth rate was calculated as an increase rate in the number of hair at the end of 8 weeks, relative to the number of hair protruded from pores in the same regions before the application at the start of the test as 100%.

[4] = system: hair papilla cells; assay: Hair papilla cell proliferation test by two-dimensional culture (Example 5); assay type: cell-based, C57BL/6N mouse; details: final concentration 0.1 wt %, cultured for 3 days; FIG. 18
Excerpt: Hair papilla cells transmit new hair growth signals to hair matrix cells via signaling substances to activate hair matrix cells, thereby controlling processes of new hair growth and hair elongation. Accordingly, the hair shaft growth promoting activity and the like of test substances can be evaluated from a proliferation rate of hair papilla cells. In this Example, the skin of the whisker region was taken from a C57BL/6N mouse and hair papillae were harvested from isolated whisker follicles under a stereo microscope. Six hair papillae were fixed to the bottom surface of a 60 mm-plastic petri dish (from Sumitomo Bakelite Co., Ltd.), and the primary culture was performed at 37° C. in the presence of 5% CO2 by using a hair papilla cell culture medium in which 2% FCS (fetal calf serum), 0.6% ITT (insulin-transferrin-triiodothyronine mixture), 1% BPE (bovine pituitary extract), and 0.6% Cyp (cyproterone solution) were added to a PCGM base medium. Afterwards, the medium was replaced every 2 to 3 days and subculturing was repeated about every two weeks. In this experiment, hair papilla cells at passage 3 or less were used. […] The number of cells after culturing for 3 days was counted by using a hemocytometer, and proliferation rates in test solution A and the test solution B were calculated relative to 100% for a proliferation rate in the negative control as 100%.

[5] = system: obese mice; details: insulin sensitivity increasing substances, PTL 2; cited from earlier work
[6] = 1 wt % in 50% ethanol, second hair cycle
[7] = 1 wt % in 50% ethanol, third hair cycle (reproducibility)
[8] = 1 wt %, third hair cycle (reproducibility)
[9] = 5 wt % in 50% ethanol, second hair cycle
[10] = 5 wt % in 50% ethanol, third hair cycle (reproducibility)
[11] = 5 wt %, third hair cycle (reproducibility)

Compound | Hair shaft growth rate [1, 6] [mm/day] | Hair shaft growth rate [1, 7] [mm/day] | Hair shaft maximum length ([1]; 1 wt %, second hair cycle) [mm] | Hair shaft maximum length [1, 8] [mm] | Hair shaft growth rate [1, 9] [mm/day] | Hair shaft growth rate [1, 10] [mm/day] | Hair growth activity (hair shaft growth rate and maximum length vs reference data) ([1]; 5 wt % or 1 wt %) | Hair shaft maximum length ([1]; 5 wt %, second hair cycle) [mm] | Hair shaft maximum length [1, 11] [mm] | Hair growth activity (hair shaft growth rate and maximum length vs reference data) ([1]; 5 wt %) | Hair papilla cell spheroid area vs negative control [2] | New hair growth rate [3] [%] | Hair papilla cell proliferation rate vs negative control [4] | Effect on hair loss [5]
OC1C(O)C(O)C(O)C(O)C1O (stereo not drawn) [allo-inositol, cis-1,2,3,4-trans-5,6-cyclohexaneheaxol] | 0.37 ± 0.03 | 0.40 ± 0.04 | 5.0 ± 0.5 | 5.2 ± 0.5 | 0.43 ± 0.02 | 0.40 ± 0.03 | hair growth activity was not confirmed | 5.5 ± 0.3 | 5.5 ± 0.8 |  |  |  |  | 
OC1C(O)C(O)C(O)C(O)C1O [L-chiro-inositol] |  |  |  |  | 0.33 ± 0.08 | 0.33 ± 0.13 |  | 4.9 ± 0.7 | 4.8 ± 0.8 | hair growth activity was not confirmed |  |  |  | 
O[C@H]1[C@H](O)[C@@H](O)[C@H](O)[C@@H](O)[C@H]1O [myo-inositol, cis-1,2,3,5-trans-4,6-cyclohexanehexaol] | 0.45 ± 0.03 | 0.44 ± 0.08 | 4.9 ± 0.5 | 5.0 ± 0.5 | 0.37 ± 0.05 | 0.39 ± 0.06 | hair growth activity was not confirmed | 4.6 ± 0.5 | 4.7 ± 0.5 |  | no significant differences were observed | 107.1 | no significant difference was observed | 
OC1C(O)C(O)C(O)C(O)C1O (stereo not drawn) [epi-inositol, cis-1,2,3,4,5-trans-6-cyclohexanehexaol] | 0.43 ± 0.06 | 0.45 ± 0.09 | 5.2 ± 0.3 | 5.3 ± 0.4 | 0.33 ± 0.09 | 0.32 ± 0.09 | hair growth activity was not confirmed | 4.7 ± 0.6 | 4.5 ± 0.6 |  |  |  |  | 
OC1C(O)C(O)C(O)C(O)C1O (stereo not drawn) [muco-inositol, cis-1,2,4,5-trans-3,6-cyclohexanehexaol] |  |  |  |  | 0.35 ± 0.03 | 0.36 ± 0.10 |  | 4.9 ± 0.3 | 5.1 ± 0.3 | hair growth activity was not confirmed |  |  |  | 
O[C@H]1[C@H](O)[C@@H](O)[C@H](O)[C@@H](O)[C@@H]1O [scyllo-inositol, cis-1,3,5-trans-2,4,6-cyclohexanehexaol] |  |  |  |  | 0.35 ± 0.09 | 0.35 ± 0.09 |  | 4.4 ± 0.3 | 4.4 ± 0.5 | hair growth activity was not confirmed |  |  |  | 
CN(C)C(=N)N=C(N)N [metformin] |  |  |  |  |  |  |  |  |  |  |  |  |  | prevented hair loss or slowed progress of hair loss
